Results as given in patent US20220016200A1, “PHARMACEUTICAL COMPOSITION FOR THE TREATMENT OF CYSTIC FIBROSIS” (GALENUS G.H. AG, priority 2018, published 2022).
Bridge positions count the residues as written; N and C are the ends. Square brackets hold non-standard residues; d marks the D form. Peptide text beside a SMILES is read from it. * marks the point of attachment. Heptanoyl(5-Me) = CCC(C)CCCC(=O)*; Dab = NCC[C@H](N)C(=O)O

Columns and labels:
[1] = test system: A. junii 1397597; experiment: Checkerboard colistin sulphate (CS) plus teicoplanin (TP), MIC/FIC and MBC/FBC; format: cell-based, Acinetobacter junii; settings: Acinetobacter junii, 1397597; A. junii; agent alone; CAMHB, 5*10^5 CFU/ml; read-out: MBC
Method: (§1) Checkerboard analysis to determine minimal inhibitory concentration (MIC)/fractional inhibitory concentration (FIC) and minimal bacterial concentration (MBC)/fractional bacterial concentration (FBC) values of colistin sulphate (CS) plus teicoplanin (TP) for 6 Gram-negative strains with a bacterial load 5(1-10)*10^5 CFU/ml in a cation-adjusted Mueller-Hinton broth (CAMHB). • a. Antimicrobial stock solutions were prepared using sterile distilled water • b. CS was added along the ordinate; TP was added along the abscissa to 96 well, flat bottom, polystyrene panels with no treatment. Colistin alone was tested in triplicates. • c. Serial 2-fold dilutions starting with 640 μg/ml CS and 640 μg/ml TP were made; 15 μl volume of the serial dilutions were added for each agent to the appropriate wells; final volume at 30 μl • d. For each agent tested alone an additional 15 μl media was added to the well. 30 μl were added in control wells where none of the agent was tested. The negative control well contains 150 μl media without any additions • e. From an overnight bacterial culture in tryptic soy broth, 100 μL was added to 10 mL of fresh tryptic soy broth. This was then incubated at 37° C. for 1.5 hour at 180 rpm. • f. Bacteria in 120 μl CAMHB were added to each well (end concentration 5(1-10)*10^5 CFU/ml) • g. Plates were incubated at 37° C. in an ambient air incubator for 24 h • h. Turbidity at OD600 is determined with a plate photometer • i. By using a one-time inoculator 3 μl from each well of the 96-well plate were transferred to three blood agar plates. The plates were incubated over night at 37° C. in an ambient air incubator • j. […] Determination of the fractional inhibitory concentration (FIC) index and fractional bactericidal concentration (FBC) index and characterization of antimicrobial interactions was assessed […]
(§2) Interactive categories were calculated from checkerboard analysis using MIC results from testing each agent alone and MIC results from the combination wells adjacent to the wells with growth in them […]

[2] = test system: S. maltophilia 1221783; experiment: as above; format: cell-based, Stenotrophomonas maltophilia; settings: agent alone, CAMHB, 5*10^5 CFU/ml
Method: as §1, §2

[3] = test system: A. haemolyticus 1655843; experiment: as above; format: cell-based, Acinetobacter haemolyticus; settings: agent alone, CAMHB, 5*10^5 CFU/ml; for MIC: A. haemolyticus 1655843, 24 h
Method: Checkerboard analysis to determine minimal inhibitory concentration (MIC)/fractional inhibitory concentration (FIC) and minimal […] (MBC)/fractional […] (FBC) values of colistin sulphate (CS) plus teicoplanin (TP) for 6 Gram-negative strains with a bacterial load 5(1-10)*10^5 CFU/ml in a cation-adjusted Mueller-Hinton broth (CAMHB). • a. Antimicrobial stock solutions were prepared using sterile distilled water • b. CS was added along the ordinate; TP was added along the abscissa to 96 well, flat bottom, polystyrene panels with no treatment. Colistin alone was tested in triplicates. • c. Serial 2-fold dilutions starting with 640 μg/ml CS and 640 μg/ml TP were made; 15 μl volume of the serial dilutions were added for each agent to the appropriate wells; final volume at 30 μl • d. For each agent tested alone an additional 15 μl media was added to the well. 30 μl were added in control wells where none of the agent was tested. The negative control well contains 150 μl media without any additions • e. From an overnight bacterial culture in tryptic soy broth, 100 μL was added to 10 mL of fresh tryptic soy broth. This was then incubated at 37° C. for 1.5 hour at 180 rpm. • f. Bacteria in 120 μl CAMHB were added to each well (end concentration 5(1-10)*10^5 CFU/ml) • g. Plates were incubated at 37° C. in an ambient air incubator for 24 h • h. Turbidity at OD600 is determined with a plate photometer • i. By using a one-time inoculator 3 μl from each well of the 96-well plate were transferred to three blood agar plates. The plates were incubated over night at 37° C. in an ambient air incubator • j. MIC values are defined as lowest concentration which restricts bacterial growth to OD600 ≤0.1 • k. MBC values were determined by visual reading the lowest concentration which inhibits 99.9% of the growth of bacteria in the wells • l. Determination of the fractional inhibitory concentration (FIC) index and fractional bactericidal concentration (FBC) index and characterization of antimicrobial interactions was assessed […]
FIC calculation was carried out as: (MIC of drug A, tested in combination)/(MIC of drug A, tested alone)+(MIC of drug B, tested in combination)/(MIC of drug B, tested alone). FBC calculation was carried out just as well […]
as §2
b. Indifference; FIC/FBC>0.5 to<4.0 c. Antagonism; FIC/FBC≥4.0 c. A. haemolyticus 1655843 (IHMA), colistin resistant

[4] = test system: S. maltophilia 1221783; experiment: Checkerboard fusidic acid (FD) and colistin sulfate (CS), MIC/FIC; format: cell-based, Stenotrophomonas maltophilia; settings: agent alone, CAMHB, 1*10^6 CFU/ml, 24 h
Method: Checkerboard assays between fusidic acid (FD) and colistin sulfate (CS) with a bacterial load 5(1-10)*10^5 CFU/ml in cationic adapted Mueller Hinton broth (CAMHB). • a. Antimicrobial stock solutions were prepared using sterile distilled water; • b. CS was added along the ordinate; FD was added along the abscissa to 96 well, flat bottom, polystyrene panels with no treatment. Colistin alone was tested in triplicates; • c. Serial 2-fold dilutions starting with 640 […] CS and 640 μg/ml FD were made; 15 μl volume of the serial dilutions were added for each agent to the appropriate wells—final volume at 30 μl; • d. For each agent tested alone an additional 15 μl media was added to the well. 30 μl were added in control wells where none of the agent was tested. […] Turbidity at OD600 is determined with a plate photometer • i. […] Determination of the fractional inhibitory concentration (FIC) index and fractional bactericidal concentration (FBC) index and characterization of antimicrobial interactions was assessed; […]
Interactive categories were calculated from checkerboard analysis using MIC results from testing each agent alone and MIC results from the combination wells adjacent to the wells with growth in them.
Determination of the fractional inhibitory concentration (FIC) index and fractional bactericidal concentration (FBC) index and characterization of antimicrobial interactions was assessed: […]

In the case of `CCC(C)CCCC(=O)N[C@@H](CCN)C(=O)N[C@H](C(=O)N[C@@H](CCN)C(=O)N[C@H]1CCNC(=O)[C@H]([C@@H](C)O)NC(=O)[C@H](CCN)NC(=O)[C@H](CCN)NC(=O)[C@H](CC(C)C)NC(=O)[C@@H](CC(C)C)NC(=O)[C@H](CCN)NC1=O)[C@@H](C)O` (stereo partly drawn) [CS, colistin sulphate] ({Heptanoyl(5-Me)}-[Dab]T[Dab][Dab][Dab][dL]L[Dab][Dab]T; lactam 4-C), the MBC [1] was 8 µg/mL, the MIC ([2]; Stenotrophomonas maltophilia, 1221783, 24 h, read-out: MIC) was ≤ 0.5 µg/mL and the MIC ([2]; 24 h) was 0.25 µg/mL. For the same molecule, the MIC [3] was >16 µg/mL, the MIC ([3]; listed as colistin) was ≥ 4 µg/mL and the MBC ([3]; Acinetobacter haemolyticus, 1655843, A. haemolyticus, read-out: MBC) was > 16 µg/mL. For the same molecule, the MIC [4] was 0.5 mg/1l.
